Holding throughout (assay type): biochemical
Assay [1] deals with Cas12a. Description: Electrophoretic mobility shift assay of chemical enhancers on CRISPR/Cas12a. To be noted: optimal concentrations (10 mM DTT, 500 μM TCEP, 1% PVA, 0.04% Brij23). On the procedure: This is because fluorescence process may be independently affected by chemical enhancers used here. Briefly, the standard CRISPR/Cas12a reaction mixture was prepared as per point 1 above, then chemical enhancers were added at concentrations determined to be optimal (10 mM DTT, 500 μM TCEP, 1% PVA, 0.04% Brij23), and the same volume of 1×PBS was also used as the control. […] Alternatively, 50 μL of CRISPR/Cas12a and the chemical enhancer mixture was firstly mixed with 1 μL different concentrations of target ssDNA (5 μM, 10 μM, 15 μM, 20 μM), and then either 1 μL 1 μM triggering ssDNA was added or 1 μL PBS as control. The reaction mixtures were incubated at 26° C. for 60 mins, and then deactivated at 65° C. for 15 mins. Afterwards, 10 μL of each deactivated reaction mixture was mixed with 2 μL 6× loading dye and loaded onto 3% Agarose gel with 1× GelRed nucleic acid dye for voltage-constant electrophoresis at 60V for 100 mins.

Assay [2] has as its target T1, Cas13a (Leptotrichia wadei, UniProt U2PSH1).
T1 construct: Twinstrep (N); SUMO (N); His tag (only implied by HisTrap purification); host or cells: E. coli
The assay can be described thus: Evaluation of trans-cleavage activity of chemically induced CRISPR/Cas13a system. On the procedure: For all trans-cleavage evaluation experiments, the CRISPR/Cas13a reaction mixture was prepared as follows: 10 μL 4 μM (40 μmol) of Cas13a protein was gently mixed with 2 μL 20 μM (40 μmol) gRNA in 1 mL reaction buffer. Then, 6 μL 20 μM (120 μmol) of pre-synthesized ssRNA target (FAM) was added and well mixed to form the standard reaction mixture.
Diverse types of chemicals were first dissolved in MilliQ water to produce high concentration storage solutions, then a certain amount of storage solution was added into the standard CRISPR/Cas13a reaction mixture to realize the certain concentration of chemical involved final reaction mixture.
2 μL 1 μM single strand trigger RNA was applied in 100 μL prepared CRISPR/Cas13a reaction mixture for starting the CRISPR reaction process. ID3 plate reader was applied for the detection of fluorescence readout from FAM modified target with the excitation wavelength of 480 nm and emission wavelength of 520 nm.

The test system of assay [3] is Cas12a. Description: Optimization of chemical-based reaction buffer, RNA reporter based CRISPR/Cas12a system. As to conditions: chemicals added in NEB2.1 buffer; DTT 10 mM. The protocol:
10 μL 10 μM ([…]) Cas12a protein was gently mixed with 5 μL 20 μM ([…]) gRNA in 3.6 mL 1×NEB 2.1 buffer, which was diluted by Milli-Q water. Then, 6 μL 100 μM (0.6 nmol) ssRNA linked fluorescent reporter was added and well mixed to form the final reaction mixture. The prepared reaction mixture was kept on ice before use.
Three different chemicals were applied in the reaction buffer system, and the concentration of 1,4-dithiothreitol (DTT) was 10 mM, the concentration of Tris(2-carboxyethyl)phosphine hydrochloride (TCEP) was 0.5 mM, and the concentration of Polyvinyl alcohol (PVA) was 10 mg/mL.

The test system of assay [4] is Cas12a. The assay can be described thus: Trans-cleavage ability of antibody-Cas12a/gRNA (BAC) conjugate with ssDNA reporters. As to conditions: for reaction time to reach desired fluorescent signal intensity, faster than control: BAC conjugate, 10 mM DTT. On the procedure:
Firstly, 2 uL 100 μM (30 ug) Cas12a protein and 10 uL 20 μM gRNA were mixed in 30 uL NEB2.1 buffer to form the Cas12a/gRNA mixture solution. In the meanwhile, 3 uL modifier from the streptavidin conjugation kit (Abcam, ab102921) was mixed with 23 uL 1.3 mg/mL (30 ug) Cry104 antibody gently. Then, the two types of solutions were mixed together and incubated for 3 hours at room temperature. After the incubation, 3 uL quencher from the streptavidin conjugation kit (Abcam, ab102921) was added into the solution to stop the excess conjugation reaction. Finally, 50% glycerol (volume) was added into the prepared antibody-Cas12a/gRNA solution for long time storage in −20° C. freezer.
For comparison, an antibody-Cas12a conjugate was prepared according to the same procedure, where only Cas12a protein was mixed with the Cry104 antibody and modifier (i.e. without gRNA).
The standard CRISPR/Cas12a mixture was first prepared using Cry104-Cas12a/gRNA conjugate. Briefly, 100 pmol of Cry104-Cas12a/gRNA conjugate was added into 3.6 mL 1×NEB 2.1 buffer. Then, 6 μL 100 μM (0.6 nmol) ssDNA linked fluorescent reporter and 36 μL 1 M DTT were added and well mixed to form the final reaction mixture. The prepared reaction mixture was kept on ice before use.
In order to evaluate the trans-cleavage ability of Cry104-Cas12a/gRNA conjugate, 5 μL 1 μM triggering ssDNA was added into 100 μL prepared standard CRISPR/Cas12a mixture and incubated for 120 min at room temperature or 37° C. before fluorescence signal test using ID3 plate reader (Excitation wavelength of 570 nm and emission wavelength of 615 nm).

Assay [5] deals with Cas12a. The assay can be described thus: Evaluation of trans-cleavage activity of Cas12a with chemical enhancers (fluorescence readout). As to conditions: for fluorescence intensity, fold of that in the control: optimised concentrations, Texas Red ssDNA target, incubation time 2 h; for performance with ssRNA target: ssRNA target (FAM), 37° C. incubation; for optimum concentration leading to the highest trans-cleavage rate: sulfhydryl reductant. The protocol:
For all trans-cleavage activity evaluation experiments, the CRISPR/Cas12a reaction mixture was prepared as follows: 1 μL 100 μM ([…]) of Cas12a protein was gently mixed with 5 μL 20 μM ([…]) gRNA in 3.6 mL 1×NEB 2.1 buffer. […] Different chemical enhancers (sulfhydryl reductant and surfactant) were first dissolved in MilliQ water to produce high concentration storage solutions, then a certain amount of storage solution was added into the standard CRISPR/Cas12a reaction mixture to realize the final reaction mixture with defined concentration of enhancers.
5 μL 1 μM single strand trigger DNA was applied in 100 μL prepared CRISPR/Cas12a reaction mixture for starting the CRISPR reaction process. SpectraMax i3x multi-Mode Microplate Reader (Molecular devices) was applied for the detection of fluorescence readout.

T1 sequence (U2PSH1 whole entry): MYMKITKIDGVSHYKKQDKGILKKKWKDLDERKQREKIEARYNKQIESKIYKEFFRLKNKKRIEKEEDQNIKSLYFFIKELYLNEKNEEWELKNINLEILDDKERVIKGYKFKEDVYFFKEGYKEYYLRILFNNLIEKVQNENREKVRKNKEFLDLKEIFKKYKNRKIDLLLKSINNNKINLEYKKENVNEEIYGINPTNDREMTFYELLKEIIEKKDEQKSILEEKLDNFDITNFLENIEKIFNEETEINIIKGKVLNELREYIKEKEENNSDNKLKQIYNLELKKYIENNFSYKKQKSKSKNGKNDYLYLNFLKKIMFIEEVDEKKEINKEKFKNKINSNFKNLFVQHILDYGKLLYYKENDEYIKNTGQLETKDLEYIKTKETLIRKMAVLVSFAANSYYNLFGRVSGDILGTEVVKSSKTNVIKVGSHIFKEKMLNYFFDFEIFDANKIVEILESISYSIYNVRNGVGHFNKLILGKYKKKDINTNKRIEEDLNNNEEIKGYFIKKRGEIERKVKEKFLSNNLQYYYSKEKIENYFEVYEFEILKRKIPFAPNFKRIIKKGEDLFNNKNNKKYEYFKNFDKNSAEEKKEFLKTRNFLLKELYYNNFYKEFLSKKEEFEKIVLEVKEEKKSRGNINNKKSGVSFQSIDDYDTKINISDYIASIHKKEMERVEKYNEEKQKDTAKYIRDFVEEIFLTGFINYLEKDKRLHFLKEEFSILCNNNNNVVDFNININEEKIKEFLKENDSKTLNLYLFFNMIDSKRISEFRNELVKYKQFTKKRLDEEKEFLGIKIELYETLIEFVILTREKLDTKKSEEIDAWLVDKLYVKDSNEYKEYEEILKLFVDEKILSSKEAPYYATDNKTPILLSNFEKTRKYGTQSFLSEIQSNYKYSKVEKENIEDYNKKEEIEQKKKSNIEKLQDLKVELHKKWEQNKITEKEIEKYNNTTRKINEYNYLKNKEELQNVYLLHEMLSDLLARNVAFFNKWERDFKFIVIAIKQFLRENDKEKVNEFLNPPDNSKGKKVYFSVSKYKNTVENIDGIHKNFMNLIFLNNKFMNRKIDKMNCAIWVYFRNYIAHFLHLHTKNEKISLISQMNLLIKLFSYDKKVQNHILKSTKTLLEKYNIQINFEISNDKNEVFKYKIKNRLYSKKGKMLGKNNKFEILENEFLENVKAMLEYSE

Consider `O[C@H](CS)[C@H](O)CS` (racemic) [DTT, Dithiothreitol], for which the “effect in electrophoretic mobility shift assay” value in assay [1] is recorded as “increased cleavage of the target DNA”. In assay [2], the optimum concentration was 5 mM. For the same molecule, the “performance of RNA reporter based CRISPR/Cas12a biosensing system” value in assay [3] is given as “best performance”. Further, the “reaction time to reach desired fluorescent signal intensity, faster than control” value in assay [4] was ~50%. Further, the “reaction time to reach desired fluorescent signal intensity, faster than control” value in assay [4] (37° C.) is given as ~70%. In addition, in assay [4] (DTT 10 mM and 37° C.), the “fluorescence signal output, factor versus control reaction” value is “approximately 2”. The “fluorescence signal increase of BAC conjugate” value in assay [4] (DTT 10 mM, room temperature) was ~1.4 times. The “fluorescence signal relative to controls without DTT” value in assay [5] (Cy5.5 ssDNA target, 120 min) is given as “around three”. Besides, in assay [5], the “fluorescence intensity, fold of that in the control” value (“fluorescence intensity, fold” for short) is recorded as 1.3 fold and the “performance with ssRNA target” value was “Enhanced performances”. Besides, in assay [5] (Cas12a), the “optimum concentration leading to the highest trans-cleavage rate” value (shortened to “optimum concentration leading”) was 10 mM.

As to `O=C(O)CCP(CCC(=O)O)CCC(=O)O` [TCEP, Tris(2-carboxyethyl)phosphine], in assay [5], the “fluorescence intensity, fold” value was 2.4 fold and the “performance with ssRNA target” value is on record as “Enhanced performances”. The “optimum concentration leading” value in assay [5] (Cas12a) is 0.5 mM.

Turning to Triton X-100, the “optimum concentration of non-ionic surfactant” value in assay [5] (Cas12a, Texas red DNA reporter) came to 0.01%.

`OCCS` [2-ME, 2-Mercaptoethanol]: the “fluorescence intensity, fold” value in assay [5] amounted to 3.4 fold. Further, in assay [5] (Cas12a), the “optimum concentration leading” value was 1 mM.

The values above are taken from US20240426838A1, “CRISPR/CAS-Associated Detection Assays, Methods and Kits” (BioPoint Pty Limited, priority 2021, published 2024).
